This note sets out measurements from US20120220658A1, “Method for Treating Sepsis or Septic Shock” (University of Medicine and Dentistry of New Jersey, priority 2009, published 2012).

“Also recorded” adds a separate entry of the source.

The subject of test [1] is CLP rats. Put plainly: Survival in cecal ligation and perforation (CLP) model of sepsis, LXA4 i.p. Type of test: in vivo, male Sprague-Dawley rats. As to conditions: 40 μg/kg i.p. five hours after CLP surgery; subgroup of rats that lived longer than 48 hours; vs vehicle treated CLP rats. The protocol: (§1) Surgery. Cecal ligation and perforation (CLP) was performed on male Sprague-Dawley rats (250-350 g) according to known methods (Chaudry, et al. (1979) Surgery 85:205-21). The CLP model of sepsis is an established, clinically relevant model of sepsis (Rittirsch et al., (2009) Nature Protocol 4(1):31-36). Animals were fasted overnight before surgery. On the day of surgery, rats were anesthetized with Isofluorane (+oxygen). A 2-cm-long midline incision was made in the abdomen to expose the cecum. Fecal matter was massaged into the cecum. The distal two-thirds of the cecum was ligated with 4.0 surgical silk. Using an 18-gauge needle, the cecum was punctured twice. Some fecal matter was massaged out of the cecum through these holes. The cecum was placed back into the abdomen, which was then closed. Saline (2 ml/100 g; s.c.) was injected to replace any fluids lost during surgery. Five hours after surgery, the rats were given either LXA4 (40 μg/kg rat; i.p.) or saline vehicle. […]
In this study, the effect of LXA4 in the clinically relevant cecal ligation and puncture (CLP) model of sepsis was analyzed. […]
Survival. […] As there was a significant change in the slope of the individual survival curves starting at 48 hours, the effects of LXA4 on systemic inflammatory mediator release, bacterial load and peritoneal leukocyte counts 48 hours after CLP sepsis were analyzed.

Test [2] deals with bacterial load in CLP rats. Put plainly: Bacterial load (CFU) in blood and peritoneal lavage fluid after CLP. The test is classed as in vivo, male Sprague-Dawley rats. To be noted: 40 μg/kg i.p. 5 h after CLP; 48 hours after CLP; vs saline vehicle. The protocol: as §1, with “vehicle. This concentration of LXA4 was derived from published in vivo work in rodents (Bannenberg et al., (2004) Br. J. Pharmacol. 143:43-52).” for “vehicle.”
Bacterial Load. […] At the end of the incubation period, colony forming units (CFU) were counted.
Bacterial Load. Bacterial load in blood and peritoneal lavage fluid was measured after plating of serially diluted samples on tryptic soy agar plates. […]

Test [3] has as its system peritoneal leukocytes of CLP rats. In words: Peritoneal cell count and differential after CLP. The test is classed as in vivo, male Sprague-Dawley rats. To be noted: 40 μg/kg i.p. 5 h after CLP; 48 hours after CLP; vs CLP rats given saline. On the procedure:
(§2) Surgery. Cecal ligation and perforation (CLP) was performed on male Sprague-Dawley rats (250-350 g) according to known methods (Chaudry, et al. (1979) Surgery 85:205-21). The CLP model of sepsis is an established, clinically relevant model of sepsis (Rittirsch et al., (2009) Nature Protocol 4(1):31-36). Animals were fasted overnight before surgery. On the day of surgery, rats were anesthetized with Isofluorane (+oxygen). A 2-cm-long midline incision was made in the abdomen to expose the cecum. Fecal matter was massaged into the cecum. The distal two-thirds of the cecum was ligated with 4.0 surgical silk. Using an 18-gauge needle, the cecum was punctured twice. Some fecal matter was massaged out of the cecum through these holes. The cecum was placed back into the abdomen, which was then closed. Saline (2 ml/100 g; s.c.) was injected to replace any fluids lost during surgery. Five hours after surgery, the rats were given either LXA4 (40 μg/kg rat; i.p.) or saline vehicle. This concentration of LXA4 was derived from published in vivo work in rodents (Bannenberg et al., (2004) Br. J. Pharmacol. 143:43-52). At the end of 48 hours, rats were anesthetized with pentobarbital (50 mg/kg, i.p.). A midline incision was made and the peritoneal cavity was lavaged with 20 ml of PBS containing 0.38% Na citrate (as anticoagulant).
Two hundred μl of lavage fluid was taken immediately for measurement of bacterial load. The rest of the fluid was passed through a […] (diameter) nylon mesh to remove debris and then centrifuged at 110×g for 7 minutes at 4° C. The supernatant was removed and stored at −80° C. for further analyses. Forty ml red blood cell lysis buffer was added to the cell pellet for 10 minutes with gentle inversion before being centrifuged again at 110×g (7 minutes; 4° C.). Cells were resuspended in 1 ml PBS.
Peritoneal Cell Differential. Peritoneal cells were counted using an automated hemocytometer (Beckman Coulter Counter; Z4) and then cytospun onto superfrost ++ slides. In order to perform cell differentials, DIFQUIK staining was performed according to manufacturer's instructions. […]

For a further test, the system named is IL-6. In words: Plasma IL-6 level after CLP. The test is classed as in vivo, male Sprague-Dawley rats. As to conditions: 40 μg/kg i.p. 5 h after CLP; 48 hours after CLP; vs saline vehicle. On the procedure:
as §2, with “A midline incision was made and the peritoneal cavity was lavaged with 20 ml of PBS containing 0.38% Na citrate (as anticoagulant).” left out
(§3) Plasma IL-6, MCP-1 and IL-10 Levels. Plasma IL-6, MCP-1 and IL-10 levels were measured using commercially available kits. […]

The test system of a further test is MCP-1. In words: Plasma MCP-1 level after CLP. The test is classed as in vivo, male Sprague-Dawley rats. As to conditions: 40 μg/kg i.p. 5 h after CLP; 48 hours after CLP; vs saline vehicle. The protocol: as §1, with “vehicle. This concentration of LXA4 was derived from published in vivo work in rodents (Bannenberg et al., (2004) Br. J. Pharmacol. 143:43-52).” for “vehicle.”
Plasma IL-6, MCP-1 and IL-10 Levels. Plasma IL-6, MCP-1 and IL-10 levels were measured using commercially available kits.
Plasma MCP-1. […] Accordingly, plasma MCP-1 was measured as another marker of systemic inflammatory response. […]

Another test has as its system IL-10. Put plainly: Plasma IL-10 level after CLP. Type of test: in vivo, male Sprague-Dawley rats. To be noted: 40 μg/kg i.p. 5 h after CLP; 48 hours after CLP; vs saline vehicle. On the procedure:
as §2, with “A midline incision was made and the peritoneal cavity was lavaged with 20 ml of PBS containing 0.38% Na citrate (as anticoagulant).” left out
as §3

In test [4] the test system is CLP rats. Put plainly: Survival after CLP-induced sepsis, intravenous LXA4. The test is classed as in vivo. As to conditions: 8 μg/kg i.v., single dose 1 hour after CLP; monitored every 24 hours for 8 days. On the procedure:
as §1, with “vehicle. This concentration of LXA4 was derived from published in vivo work in rodents (Bannenberg et al., (2004) Br. J. Pharmacol. 143:43-52).” for “vehicle.”
To further examine the use of LXA4 in the treatment of sepsis, the effect intravenous LXA4 administration on survival after CLP-induced sepsis was examined. […] Survival was monitored every 24 hours for 8 days (FIG. 7).

With `CCCCC[C@H](O)/C=C/C=C\C=C\C=C\[C@@H](O)[C@@H](O)CCCC(=O)O` [LXA4, 5S,6R,15S-trihydroxy-7E,9E,11Z,13E-Eicosatetraenoic acid], in the test on CLP rats [1], the “survival (Kaplan-Meier, log-rank test)” value is listed as “significantly increased survival; also recorded: increased survival rate”. In test [2], the “bacterial load in the peritoneal cavity (CFU)” value is recorded as “reduced bacterial load in the peritoneal cavity but the reduction did not reach significance” and the “blood bacterial load (CFU)” value is reported as “reduces blood bacterial load; also recorded: substantially reduced blood bacterial load”. Further, in test [3], the “number of monocytes/macrophages in the peritoneal cavity” value is listed as “increased the number of monocytes/macrophages”, the “number of neutrophils in the peritoneal cavity” value is “without affecting the number of neutrophils; also recorded: number of neutrophils remained similar in both groups” and the “total number of peritoneal cells (leukocytes)” value is “increased the total number of peritoneal cells; also recorded: increased peritoneal leukocytes further”. In addition, the “plasma IL-6 levels” value in the test with IL-6 is listed as “reduced plasma levels of IL-6”. In the test on MCP-1, the “plasma MCP-1 levels” value is reported as “reduced plasma levels of MCP-1; also recorded: significantly reduced plasma MCP-1 levels”. The “plasma IL-10 levels” value in the test on IL-10 is “significantly decreased plasma IL-10 levels”. In addition, the “survival (Kaplan-Meier, log rank test)” value in the test on CLP rats [4] was “significantly increased survival”.
